Data on seven molecules can be found in patent publication US12077503B2, “Substituted cyclic amides and their use as herbicides” (FMC CORPORATION, priority 2015, dated 2024).

Like-named read-outs stand apart in the source and are kept apart here.

Holding throughout (test): Test A preemergence
Assay type in all cases: in vivo

Assay [1] deals with barnyardgrass (Echinochloa crus-galli). The following applies: Echinochloa crus-galli, pre-emergence, 240 h; for pest or weed control at 125 g/ha: 125 g ai/ha; for pest or weed control at 500 g/ha: 500 g ai/ha. A digest of the protocol:
(§1)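 Greenhouse, ~10 d after spray; visual injury vs untreated controls, 0 = no effect, 100 = complete control. Preemergence: directed soil spray over planted seeds. Postemergence: plants 2–10 cm, 1–2 leaf stage. Loam/sand blend. Compound in non-phytotoxic solvent with surfactant.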

Assay [2] has as its system ragweed (common ragweed, Ambrosia elatior). The note with it: Ambrosia artemisiifolia, pre-emergence, 240 h; for pest or weed control at 125 g/ha: 125 g ai/ha; for pest or weed control at 500 g/ha: 500 g ai/ha. A digest of the protocol:
as §1

In a further assay the test system is Kochia (Kochia scoparia). The note with it: Bassia scoparia, pre-emergence, 240 h; for pest or weed control at 125 g/ha: 125 g ai/ha; for pest or weed control at 500 g/ha: 500 g ai/ha. A digest of the protocol: as §1
The subject of assay [3] is giant foxtail (Setaria faberii). The following applies: Setaria faberi, pre-emergence, 240 h; for pest or weed control at 125 g/ha: 125 g ai/ha; for pest or weed control at 500 g/ha: 500 g ai/ha. The essentials: as §1
Assay [4] relates to ryegrass, Italian (Italian ryegrass, Lolium multiflorum). The following applies: Lolium multiflorum, pre-emergence, 240 h; for pest or weed control at 125 g/ha: 125 g ai/ha; for pest or weed control at 500 g/ha: 500 g ai/ha. A digest of the protocol:
as §1

[5] abbreviates: preemergence, 0 to 100 scale where 0 is no effect and 100 is complete control, read-out: Barnyardgrass plant response rating.
Where [6] appears, read: Preemergence, visual injury vs untreated controls after approximately 10 d, read-out: Barnyardgrass plant response rating (0 to 100 scale where 0 is no effect and 100 is complete control).
Where [7] appears, read: preemergence, 0 to 100 scale where 0 is no effect and 100 is complete control, read-out: Ragweed plant response rating.
Setting [8] is: Preemergence, visual injury vs untreated controls after approximately 10 d, read-out: Ragweed plant response rating (0 to 100 scale where 0 is no effect and 100 is complete control).
[9] abbreviates: preemergence, 0 to 100 scale where 0 is no effect and 100 is complete control, read-out: Kochia plant response rating.
Where [10] appears, read: Preemergence, visual injury vs untreated controls after approximately 10 d, read-out: Kochia plant response rating (0 to 100 scale where 0 is no effect and 100 is complete control).
Where [11] appears, read: preemergence, 0 to 100 scale where 0 is no effect and 100 is complete control, read-out: Foxtail, Giant plant response rating.
[12] abbreviates: Preemergence, visual injury vs untreated controls after approximately 10 d, read-out: Foxtail, Giant plant response rating (0 to 100 scale where 0 is no effect and 100 is complete control).
The mark [13] stands for this setting: preemergence, 0 to 100 scale where 0 is no effect and 100 is complete control, read-out: Ryegrass, Italian plant response rating.
Where [14] appears, read: Preemergence, visual injury vs untreated controls after approximately 10 d, read-out: Ryegrass, Italian plant response rating (0 to 100 scale where 0 is no effect and 100 is complete control).
Setting [15] is: preemergence, 0 to 100 scale where 0 is no effect and 100 is complete control, approx. 10 d, read-out: Barnyardgrass plant response rating.
Setting [16] is: preemergence, visual injury rating about 10 d after treatment, 0 to 100 scale (0 no effect, 100 complete control), read-out: Barnyardgrass plant response rating.
The mark [17] stands for this setting: preemergence, 0 to 100 scale where 0 is no effect and 100 is complete control, approx. 10 d, read-out: Ragweed plant response rating.
The mark [18] stands for this setting: preemergence, 0 to 100 scale where 0 is no effect and 100 is complete control, approx. 10 d, read-out: Kochia plant response rating.
Setting [19] is: preemergence, 0 to 100 scale where 0 is no effect and 100 is complete control, approx. 10 d, read-out: Foxtail, Giant plant response rating.
Where [20] appears, read: preemergence, 0 to 100 scale where 0 is no effect and 100 is complete control, approx. 10 d, read-out: Ryegrass, Italian plant response rating.

Regarding `Cc1c(F)ccc([C@H]2CN(C)C(=O)[C@@H]2C(=O)Nc2ccccc2C(F)(F)F)c1F` [Compound 841], the pest or weed control at 125 g/ha in assay [1] (setting [5]) was determined as 90%; in assay [2] (setting [7]), 0%; in the assay on Kochia (Kochia scoparia) (setting [9]), 40%; in assay [3] (setting [11]), 90%; in assay [4] (setting [13]) it was 0%. Moreover, the pest or weed control at 500 g/ha amounted to 100% in assay [1] (setting [6]); 0% in assay [2] (setting [8]); 60% in the assay with Kochia (Kochia scoparia) (setting [10]); 90% in assay [3] (setting [12]); 40% in assay [4] (setting [14]).
Regarding `CN1C[C@H](c2csc3ccccc23)[C@@H](C(=O)Nc2cccc(F)c2F)C1=O` [Compound 1115], the pest or weed control at 125 g/ha turned out to be 90% in assay [1] (setting [15]); 0% in assay [2] (setting [17]); 70% in the assay with Kochia (Kochia scoparia) (setting [18]); 90% in assay [3] (setting [19]); 50% in assay [4] (setting [20]). Moreover, the pest or weed control at 500 g/ha in assay [1] (setting [16]) is 90%; in assay [2] (setting [7]), 20%; in the assay with Kochia (Kochia scoparia) (setting [9]), 70%; in assay [3] (setting [11]) it was 90%; in assay [4] (setting [13]) it was 60%.
With `CC(C)c1cccc([C@H]2CN(C)C(=O)[C@@H]2C(=O)Nc2ccc(F)cc2F)c1` [Compound 821], the pest or weed control at 125 g/ha in assay [1] (setting [5]) amounted to 90%; in assay [2] (setting [7]), 0%; in the assay on Kochia (Kochia scoparia) (setting [9]), 70%; in assay [3] (setting [11]), 90%; in assay [4] (setting [13]) it was 80%. Besides, the pest or weed control at 500 g/ha in assay [1] (setting [6]) came to 90%; in assay [2] (setting [8]), 0%; in the assay with Kochia (Kochia scoparia) (setting [10]), 90%; in assay [3] (setting [12]) it was 100%; in assay [4] (setting [14]), 90%.
On to `O=C1NC[C@H](c2cc(F)c(C(F)(F)F)c(F)c2)[C@H]1C(=O)Nc1ccc(F)cc1F` [Compound 840], for which the pest or weed control at 125 g/ha in assay [1] (setting [5]) is 80%; in assay [2] (setting [7]) it was 0%; with Kochia (Kochia scoparia) (setting [9]), 0%; in assay [3] (setting [11]), 90%; in assay [4] (setting [13]) it was 0%. The pest or weed control at 500 g/ha in assay [1] (setting [6]) was determined as 90%; in assay [2] (setting [8]) it was 0%; in the assay on Kochia (Kochia scoparia) (setting [10]) it was 70%; in assay [3] (setting [12]), 90%; in assay [4] (setting [14]), 20%.
For the molecule `CCc1cc([C@H]2CN(C)C(=O)[C@@H]2C(=O)Nc2cccc(F)c2F)cs1` [Compound 1157], the pest or weed control at 125 g/ha in assay [1] (setting [15]) was 90%; in assay [2] (setting [17]) it was 0%; with Kochia (Kochia scoparia) (setting [18]) it was 90%; in assay [3] (setting [19]) it was 90%; in assay [4] (setting [20]), 30%. Besides, the pest or weed control at 500 g/ha in assay [1] (setting [5]) turned out to be 90%; in assay [2] (setting [7]), 80%; in the assay with Kochia (Kochia scoparia) (setting [9]), 90%; in assay [3] (setting [11]) it was 100%; in assay [4] (setting [13]), 90%.
For the molecule `Cc1ccc([C@H]2CNC(=O)[C@@H]2C(=O)Nc2ccccc2S(C)(=O)=O)cc1C` [Compound 1037], the pest or weed control at 125 g/ha in assay [1] (Preemergence, visual injury rating after approximately 10 d, read-out: Barnyardgrass plant response rating (0 to 100 scale, 0 is no effect, 100 is complete control)) came out at 80%; in assay [2] (Preemergence, visual injury rating after approximately 10 d, read-out: Ragweed plant response rating (0 to 100 scale, 0 is no effect, 100 is complete control)) it was 0%; in the assay with Kochia (Kochia scoparia) (Preemergence, visual injury rating after approximately 10 d, read-out: Kochia plant response rating (0 to 100 scale, 0 is no effect, 100 is complete control)), 40%; in assay [3] (Preemergence, visual injury rating after approximately 10 d, read-out: Foxtail, Giant plant response rating (0 to 100 scale, 0 is no effect, 100 is complete control)) it was 20%; in assay [4] (Preemergence, visual injury rating after approximately 10 d, read-out: Ryegrass, Italian plant response rating (0 to 100 scale, 0 is no effect, 100 is complete control)) it was 50%. Further, the pest or weed control at 500 g/ha stood at 90% in assay [1] (setting [16]); 60% in assay [2] (preemergence, visual injury rating about 10 d after treatment, 0 to 100 scale (0 no effect, 100 complete control), read-out: Ragweed plant response rating); 90% in the assay on Kochia (Kochia scoparia) (preemergence, visual injury rating about 10 d after treatment, 0 to 100 scale (0 no effect, 100 complete control), read-out: Kochia plant response rating); 80% in assay [3] (preemergence, visual injury rating about 10 d after treatment, 0 to 100 scale (0 no effect, 100 complete control), read-out: Foxtail, Giant plant response rating); 70% in assay [4] (preemergence, visual injury rating about 10 d after treatment, 0 to 100 scale (0 no effect, 100 complete control), read-out: Ryegrass, Italian plant response rating).
As for `CSc1ccccc1NC(=O)[C@H]1C(=O)N(C)C[C@@H]1c1ccc(OC(F)F)cc1` [Compound 1212], the pest or weed control at 125 g/ha was found to be 80% in assay [1] (preemergence, visual injury rating, 0 to 100 scale where 0 is no effect and 100 is complete control, approximately 10 d, read-out: Barnyardgrass plant response rating); 40% in assay [2] (preemergence, visual injury rating, 0 to 100 scale where 0 is no effect and 100 is complete control, approximately 10 d, read-out: Ragweed plant response rating); 100% with Kochia (Kochia scoparia) (preemergence, visual injury rating, 0 to 100 scale where 0 is no effect and 100 is complete control, approximately 10 d, read-out: Kochia plant response rating); 90% in assay [3] (preemergence, visual injury rating, 0 to 100 scale where 0 is no effect and 100 is complete control, approximately 10 d, read-out: Foxtail, Giant plant response rating); 0% in assay [4] (preemergence, visual injury rating, 0 to 100 scale where 0 is no effect and 100 is complete control, approximately 10 d, read-out: Ryegrass, Italian plant response rating). Further, the pest or weed control at 500 g/ha in assay [1] (setting [5]) was 100%; in assay [2] (setting [7]), 90%; in the assay with Kochia (Kochia scoparia) (setting [9]), 100%; in assay [3] (setting [11]), 100%; in assay [4] (setting [13]), 70%.
